Laboratory results taken from US20230352136A1, “SYSTEMS AND METHODS TO EVALUATE DRUG-INDUCED GASTROINTESTINAL DYSRHYTHMIA” (The Chinese University of Hong Kong, priority 2022, published 2023).

Tests used:
[1] = system: ileum pacemaker potentials; assay: MEA recording of pacemaker potentials (slow waves), isolated ileum; assay type: cell-based, Suncus murinus; conditions: ileal tissues
Experimental: (§1) Pacemaker potentials were recorded extracellularly on a 60-channel MEA system using full-thickness GI segments isolated from Suncus murinus. Basic slow-wave parameters, including frequency, amplitude, slope, period, and power partitions, were derived. Signal regularity was also evaluated using detrended fluctuation analysis and sample entropy analysis.
(§2) Electrical recordings were taken after the animals were euthanised by carbon dioxide asphyxiation. […] The mesentery was removed, and the lumen contents were flushed with Krebs' medium. Segments (−1 cm) of duodenum, ileum, and colon were then isolated, but the stomach was kept intact. All tissue segments and the entire stomach were incubated in Krebs' medium containing nifedipine (1 μM; Sigma Aldrich, St Louis, MO, USA) for 15 min to inhibit smooth muscle activity. Pacemaker potentials were recorded using an MEA platform (MEA1060 1200×; Multichannel Systems, Reutlingen, Germany) as previously described. Briefly, tissues were placed onto the electrode field of an MEA chip (60-channel, 8×8 configuration, 3D-tip-shaped electrodes with a height of […] and an inter-electrode distance of 200 μm; Ayanda Biosystems SA, Lausanne, Switzerland). Intestinal segments were aligned horizontally to the recording electrode field, while the stomach was oriented with the antrum facing the recording electrode field. The chamber temperature was maintained at 37° C. and the sampling frequency was 1 kHz. […] All data were recorded and saved using MC_Rack (v 4.6.2, Multichannel Systems).
(§3) Data analysis included basic slow-wave feature extraction using a custom automated program. […] The time point of drug administration was automatically identified based on the signal disturbance. The period of signal disturbance (20 s before and 40 s after the peak of the disturbance) was excluded from the analysis. Data were filtered using a passband between 0.1 Hz and 1 Hz and a stopband between 0.01 Hz and 2 Hz. The basic slow-wave features extracted were similar to those extracted in the inventors' previous studies. However, instead of using several templates and scripts written in Microsoft Excel and Spike 2, a one-step automatic and blinded MATLAB programme was used for data analysis. There were four major changes to the data analysis process as compared to the inventors' previous studies. First, auto-identification of the drug disturbance time point was used, rather than manual identification. Second, standardised signal filters were built in MATLAB to match the entire data analysis pipeline. […] Frequency partitioning was performed by segmenting the power spectrum of 0-50 cpm into the following four segments: brady-rhythm (within the range 2-[DF−1] cpm), normal-rhythm ([DF±1] cpm), tachy-rhythm (within the range [DF+1]-40 cpm), and out-of-range frequencies (<2 cpm and >40 cpm). Third, waveforms were identified using the MATLAB ‘findpeaks’ function, with a minimum peak height of […] at baseline and […] after drug treatment, with a step time of 5.4 s for the intestine and 12 s for the stomach. The average peak-to-peak amplitude, slope, and period were derived for all detected waveforms. Fourth, propagation velocity was derived using phase-difference measurements, based on the auto-select seed electrode with the highest percentage of normal rhythms.
(§4) Dominant activation pattern identification included a phase-based analysis performed as previously described (Liu et al., 2021). Briefly, high-frequency spikes with amplitudes greater than […] were masked. Continuous frequencies were identified using continuous wavelet transformation, and the transformed data were used to plot spectrograms. […] High quality data were subjected to Hilbert transformation to identify the phase and frequency of the signals. Individual activation times were clustered using k-means clustering every 20 s and major activation patterns were grouped using a structural similarity index.

[2] = system: colon pacemaker potentials; assay: MEA recording of pacemaker potentials (slow waves), isolated colon; assay type: cell-based, Suncus murinus; conditions: colonic tissues
Experimental: as §1, §2, §3, §4

## Cl.NCCc1ccc(O)c(O)c1 [dopamine, 3-Hydroxytyramine hydrochloride]
[1]; 100 nM, baseline 1.71±0.17, p<0.05, n=6
  DFA fluctuation function (larger scale 26-46): 1.55±0.13
[1]; 100 nM, baseline 2.35±0.14, p<0.05, n=6
  DFA fluctuation function (smaller scale 3-25): 2.28±0.11
[1]; 100 nM, baseline 2.66±0.40, p<0.05, n=7
  waveform period: 3.73±1.05
[1]; 100 nM, baseline 15.6±10.3, p<0.05, n=7
  percentage of dominant patterns (based on post-treatment data, FIG. 3E), second pattern: 4.2±4.2%
[1]; 100 nM, baseline 16.8±6.6, p<0.01, n=7
  percentage of dominant patterns (based on post-treatment data, FIG. 3E), third pattern: 3.0±2.6%
[1]; 100 nM, baseline 17.2±4.8, p<0.0001, n=7
  percentage of dominant baseline activation patterns, third pattern: 2.2±2.6%
[1]; 100 nM, baseline 21.5±1.7, p<0.0001, n=7
  percentage of dominant baseline activation patterns, second pattern: 2.6±1.6%
[1]; 100 nM, baseline 23.5±3.0, p<0.05, n=7
  average frequency (AF): 19.4±3.6 cpm
[1]; 100 nM, baseline 31.8±11.7, p<0.05, n=7
  percentage of brady-rhythms: 60.0±26.0%
[1]; 100 nM, baseline 32.8±5.7, p<0.01, n=7
  percentage of dominant baseline activation patterns, first pattern: 3.8±4.5%
[1]; 100 nM, baseline 46.1±5.6, p<0.01, n=7
  percentage of normal rhythms: 4.8±17.0%
[1]; 100 nM, baseline 165.2±20.5, p<0.001, n=7
  amplitude of slow waves: 119.2±20.0 μV
[1]; 100 nM, baseline 257.5±59.8, p<0.01, n=7
  slope of waveforms: 160.1±42.0 μV s^−1
[1]; 100 nM, baseline 780.4±276.9, p<0.001, n=7
  dominant power (DP) of slow waves: 177.5±83.0 μV^2
[1]; 1 μM, baseline 1.78±0.24, p<0.05, n=8
  DFA fluctuation function (larger scale 26-46): 1.64±0.28
[1]; 1 μM, baseline 6.3±0.8, p<0.05, n=7
  number of groups of activation patterns: 7±0.8
[1]; 1 μM, baseline 8.9±9.0, p<0.01, n=6
  percentage of dominant patterns (based on post-treatment data, FIG. 3E), first pattern: 31.4±13.7%
[1]; 1 μM, baseline 27.5±7.8, p<0.05, n=7
  percentage of brady-rhythms: 46.3±22.7%
[1]; 1 μM, baseline 35.2±6.0, p<0.001, n=6
  percentage of dominant baseline activation patterns, first pattern: 13.0±6.7%
[1]; 1 μM, baseline 50.6±10.8, p<0.01, n=7
  percentage of normal rhythms: 24.5±11.8%
[1]; 1 μM, baseline 187.1±76.9, p<0.01, n=7
  amplitude of slow waves: 138.0±66.2 μV
[1]; 1 μM, baseline 300.9±117.5, p<0.01, n=7
  slope of waveforms: 204.4±91.9 μV s^−1
[1]; 1 μM, baseline 1,070.5±745.1, p<0.05, n=7
  dominant power (DP) of slow waves: 460.3±297.0 μV^2
[1]; 10 μM
  representative spectrogram (left), effect on DF: slightly shifted towards a higher frequency
  representative spectrogram (right), effect: extra peaks appearing to the left of the baseline DF
[1]; 10 μM, 26 before treatment
  wave fronts counted in representative spatio-temporal map (1 min): 30
[1]; 10 μM, baseline 2.30±0.18, p<0.05, n=6
  waveform period: 3.05 ± 0.68 s
[1]; 10 μM, baseline 9.3±0.7, p<0.05, n=6
  number of groups of activation patterns: 6.9±1.0
[1]; 10 μM, baseline 17.2±11.5, p<0.05, n=5
  percentage of dominant patterns (based on post-treatment data, FIG. 3E), first pattern: 32.3±13.2%
[1]; 10 μM, baseline 32.8±12.9, p<0.05, n=6
  percentage of brady-rhythms: 63.3±28.5%
[1]; 10 μM, baseline 35.7±8.4, p<0.05, n=5
  percentage of dominant baseline activation patterns, first pattern: 19.2±16.4%
[1]; 10 μM, baseline 50.9±9.8, p<0.0001, n=6
  percentage of normal rhythms: 9.2±10.9%
[1]; 10 μM, baseline 229.6±115.9, p<0.05, n=6
  amplitude of slow waves: 149.1±56.7 μV
[1]; 10 μM, baseline 383.7±185.8, p<0.05, n=6
  slope of waveforms: 238.2±95.7 μV s^−1
[1]; 100 μM, baseline 1.63±0.23, p<0.05, n=7
  DFA fluctuation function (larger scale 26-46): 1.43±0.21
[1]; 100 μM, baseline 2.35±0.12, p<0.05, n=7
  DFA fluctuation function (smaller scale 3-25): 2.25±0.05
[1]; 100 μM, baseline 17.8±7.4, p<0.05, n=4
  percentage of dominant patterns (based on post-treatment data, FIG. 3E), third pattern: 6.8±6.1%
[1]; 100 μM, baseline 19.1±2.8, p<0.01, n=4
  percentage of dominant baseline activation patterns, third pattern: 5.9±6.6%
[1]; 100 μM, baseline 23.5±2.8, p<0.001, n=4
  percentage of dominant baseline activation patterns, second pattern: 5.7±5.1%
[1]; 100 μM, baseline 27.6±4.1, p<0.01, n=4
  percentage of dominant baseline activation patterns, first pattern: 9.4±9.5%
[1]; 0.1-100 μM, p>0.05, n=6-7
  dominant frequency (DF), change vs baseline: No significant differences
  propagation velocities, effect: did not affect
[1]; 0.1-100 μM, p>0.05, n=6-8
  average SampEn (larger scale 6-50), effect: did not change
  average SampEn (smaller scale 1-5), effect: did not change
[1]; 1 M, baseline 2.29±0.23, p<0.05, n=8
  DFA fluctuation function (smaller scale 3-25): 2.19±0.20
[1]; 1 M, baseline 2.53±0.50, p<0.05, n=7
  waveform period: 3.10 ± 0.74 s
[1]; 10 M, baseline 2.24±0.32, p<0.05, n=8
  DFA fluctuation function (smaller scale 3-25): 2.13±0.34
[2]; 100 nM, baseline 0.33±0.06, p<0.01, n=6
  average SampEn (larger scale 6-50): 0.28±0.07
[2]; 100 nM, baseline 0.59±0.03, p<0.01, n=6
  average SampEn (smaller scale 1-5): 0.62±0.03
[2]; 100 nM, baseline 1.80±0.09, p<0.001, n=6
  DFA fluctuation function (larger scale 26-46): 1.58±0.11
[2]; 100 nM, baseline 2.37±0.07, p<0.01, n=6
  DFA fluctuation function (smaller scale 3-25): 2.26±0.06
[2]; 100 nM, baseline 23.9±2.4, p<0.05, n=7
  average frequency (AF): 23.3±1.6 cpm
[2]; 1 μM, baseline 2.30±0.33, p<0.05, n=8
  DFA fluctuation function (smaller scale 3-25): 2.23±0.34
[2]; 1 μM, baseline 5.4±1.0, p<0.05, n=6
  number of groups of activation patterns: 6.4±1.1
[2]; 1 μM, baseline 18.3±12.6, p<0.05, n=6
  percentage of tachy-rhythms: 55.5±34.8%
[2]; 1 μM, baseline 19.1±12.2, p<0.05, n=6
  percentage of dominant patterns (based on post-treatment data, FIG. 3E), first pattern: 39.6±15.6%
[2]; 1 μM, baseline 41.4±9.7, p<0.01, n=6
  percentage of normal rhythms: 14.5±18.1%
[2]; 10 μM
  propagation direction and speed in video (FIGS. 12A-12B): relatively constant
  representative spectrogram, effect: extra peaks appeared to the right of the original DF
[2]; 10 μM, 32 before treatment
  wave fronts counted in representative spatio-temporal map (1 min): 32
[2]; 10 μM, baseline 0.57±0.06, p<0.05, n=6
  average SampEn (smaller scale 1-5): 0.60±0.04
[2]; 10 μM, baseline 2.24±0.23, p<0.05, n=6
  DFA fluctuation function (smaller scale 3-25): 2.11±0.27
[2]; 10 μM, baseline 6±0.7, p<0.05, n=9
  number of groups of activation patterns: 6.8±1.1
[2]; 10 μM, baseline 42.4±6.9, p<0.05, n=9
  percentage of normal rhythms: 13.1±17.4%
[2]; 100 μM, baseline 1.63±0.19, p<0.05, n=10
  DFA fluctuation function (larger scale 26-46): 1.46±0.21
[2]; 100 μM, baseline 2.31±0.12
  DFA fluctuation function (smaller scale 3-25): 2.19±0.13
[2]; 100 μM, baseline 20.3±10.8, p<0.0001, n=5
  percentage of dominant patterns (based on post-treatment data, FIG. 3E), third pattern: 7.5±5.8%
[2]; 100 μM, baseline 34.4±3.7, p<0.01, n=4
  percentage of dominant baseline activation patterns, first pattern: 11.4±12.9%
[2]; 100 μM, baseline 34.7±9.1, p<0.05, n=6
  percentage of brady-rhythms: 53.9±26.8%
[2]; 100 μM, baseline 53.1±8.1, p<0.05, n=6
  percentage of normal rhythms: 33.4±23.3%
[2]; 100 μM, baseline 267.3±80.9, p<0.01, n=6
  amplitude of slow waves: 199.7±48.8 μV
[2]; 100 μM, baseline 439.3±124.3, p<0.001, n=6
  slope of waveforms: 299.0±76.5 μV s^−1
[2]; 0.1-100 μM, p>0.05, n=6-9
  dominant frequency (DF), change vs baseline: No significant differences
  dominant power (DP), change vs baseline: No significant differences
  propagation velocities, effect: did not affect
  waveform period, change vs baseline: No significant differences
[2]; 1 M, baseline 0.57±0.06, p<0.01, n=8
  average SampEn (smaller scale 1-5): 0.59±0.05
[2]; 1 M, baseline 1.74±0.26, p<0.01, n=8
  DFA fluctuation function (larger scale 26-46): 1.61±0.29
[2]; 10 M, baseline 1.73±0.16, p<0.05, n=6
  DFA fluctuation function (larger scale 26-46): 1.53±0.19
